Laboratory results: ChEMBL document CHEMBL1122678, “Structural correlations of choline acetyltransferase inhibitors: trans-N-(carboxymethyl)-4-(beta-1-naphthylvinyl)pyridinium bromide and cis-N-(2-aminoethyl)-4-(beta-1-naphthylvinyl)-3-methylpyridinium bromide hydrobromide” (J Med Chem, 1984)

What was measured:
[1] = (§1) Inhibitory activity was determined; conditions: read-out: I50
[2] = as §1

## C(=C\c1cccc2ccccc12)/c1ccncc1 (stereo in doubt; trans)
[1]
  IC50: 5 µM

## C(=C\c1cccc2ccccc12)/c1ccncc1 (stereo in doubt; cis) [listing 1 of 2 here]
[1]
  IC50: 50 µM

## C(=C\c1cccc2ccccc12)/c1ccncc1 (stereo in doubt; cis) [listing 2 of 2 here]
[2]
  I23: 400 µM

## C(=C\c1cccc2ccccc12)/c1ccncc1
[1]
  IC50: 25 µM
